Measurements published in patent US9040713B2, “Methods of managing blood sugar levels and compositions related thereto” (EMORY UNIVERSITY, priority 2010, dated 2015).

Columns and labels:
IR-EGFR = biological target: T1, IR-EGFR (Homo sapiens, UniProt P00533+P06213); test: His-tagged chimaeric receptor phosphorylation in CHO cells; format: cell-based; details: 5 μM, 30 min
T1 construct: the cDNA encoding extracellular IR was fused to intracellular IGFR or EGFR; expressed in transfected cells; host or cells: CHO
T1 sequence (P00533 669-1210 limits assumed, one chain of several): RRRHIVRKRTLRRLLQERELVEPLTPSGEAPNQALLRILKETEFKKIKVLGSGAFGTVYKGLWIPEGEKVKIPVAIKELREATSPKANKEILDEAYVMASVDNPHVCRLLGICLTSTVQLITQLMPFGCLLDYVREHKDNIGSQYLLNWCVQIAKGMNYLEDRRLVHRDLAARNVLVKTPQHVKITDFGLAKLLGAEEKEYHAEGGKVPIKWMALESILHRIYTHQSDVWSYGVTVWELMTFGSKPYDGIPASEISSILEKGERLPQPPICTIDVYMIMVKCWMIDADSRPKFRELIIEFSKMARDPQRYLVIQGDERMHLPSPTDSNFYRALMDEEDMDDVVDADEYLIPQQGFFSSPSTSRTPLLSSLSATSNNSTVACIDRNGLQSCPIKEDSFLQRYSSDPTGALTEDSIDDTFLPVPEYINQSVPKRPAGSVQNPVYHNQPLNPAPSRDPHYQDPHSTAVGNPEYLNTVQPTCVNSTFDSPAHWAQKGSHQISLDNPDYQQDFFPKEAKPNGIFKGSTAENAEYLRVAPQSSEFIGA
Procedure: (§1) (A) Chemical structure of 4524-E7. (B) Effect of 4524-E7 and other 1,4-naphthoquinone derivatives on IR phosphorylation in CHO-IR cells. CHO-IR cells were cultured in 96-well plates and treated with 5 μM compounds for 15 min at 37 C. Cells were lysed, and IR phosphorylations were tested by ELISA. The IR phosphorylation activities of the tested compounds were expressed as a percentage of the vehicle. (C) 4524-E7 and 1,4-naphthoquinone derivates activate IR and its downstream signaling in CHO-IR cells. […] The cell lysates were analyzed by immunoblotting with various indicated antibodies. The phosphorylated IR was immunoprecipitated using PY20 and analyzed by immunoblotting with anti-IR13 antibody. […] The phosphorylation of each receptor was determined by Western blot using specific antibodies as indicated. (E) 4524-E7 activates IR through its ICD. Upper panel: Diagram of chimaeric receptors. Lower panel: His-tagged wild-type IR, IGFR-IR, IR-IGFR, and IR-EGFR constructs were transfected into CHO cells followed vehicle or 5 μM 4524-E7 treatment for 30 min. Then the cells were lysated and the transfected receptor fused to His tag were pulled down with Ni+ beads, followed by western blot against anti-p-Tyr and anti-His. The cell lysates were tested with anti-p-Akt and anti-Akt.
(§2) The cDNA encoding wild type IR was introduced into the pcDNA3.1/V5-His-TOPO vector. […]

IR-IGFR = test: as above; format: cell-based, human; details: 5 μM, 30 min
Procedure: as §1, §2

IGFR-IR hybrid = test: as above; format: cell-based, human; details: 5 μM, 30 min
Procedure: as §1, §2

TrkB = biological target: T2, TrkB (Homo sapiens, UniProt Q16620); test: TrkB phosphorylation in transfected HEK293 cells (Western blot); format: cell-based; details: 5 μM
T2 construct: expressed in transfected cells; host or cells: HEK293
T2 sequence (Q16620 32-822, species assumed): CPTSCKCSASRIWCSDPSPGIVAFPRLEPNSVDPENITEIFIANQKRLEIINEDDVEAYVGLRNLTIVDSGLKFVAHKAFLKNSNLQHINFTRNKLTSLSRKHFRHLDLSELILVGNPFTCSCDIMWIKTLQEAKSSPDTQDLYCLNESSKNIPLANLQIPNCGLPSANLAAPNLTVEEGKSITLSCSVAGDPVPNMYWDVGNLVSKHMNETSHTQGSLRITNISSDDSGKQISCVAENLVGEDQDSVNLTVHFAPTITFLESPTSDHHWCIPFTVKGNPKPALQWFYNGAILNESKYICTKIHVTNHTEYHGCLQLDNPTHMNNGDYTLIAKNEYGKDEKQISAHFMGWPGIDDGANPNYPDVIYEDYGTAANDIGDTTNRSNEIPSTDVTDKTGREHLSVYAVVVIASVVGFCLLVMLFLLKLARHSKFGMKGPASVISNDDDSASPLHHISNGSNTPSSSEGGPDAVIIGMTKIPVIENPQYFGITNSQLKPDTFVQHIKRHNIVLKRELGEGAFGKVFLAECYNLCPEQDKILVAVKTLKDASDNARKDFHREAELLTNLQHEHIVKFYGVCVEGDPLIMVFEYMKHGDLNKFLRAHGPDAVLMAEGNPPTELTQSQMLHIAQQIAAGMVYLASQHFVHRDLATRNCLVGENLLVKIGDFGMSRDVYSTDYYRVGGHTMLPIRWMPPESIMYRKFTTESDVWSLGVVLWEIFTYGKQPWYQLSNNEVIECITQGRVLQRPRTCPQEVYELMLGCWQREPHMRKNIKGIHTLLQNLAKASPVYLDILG

IR = IR (Homo sapiens, UniProt P06213); test: Cell-based ELISA of IR tyrosine phosphorylation in CHO-IR cells; design: expressed in transfected cells; host or cells: CHO (CHO-IR, gift from Dr. Nicholas Webster, UCSD)
Chain of IR (P06213 763-1382 limits assumed): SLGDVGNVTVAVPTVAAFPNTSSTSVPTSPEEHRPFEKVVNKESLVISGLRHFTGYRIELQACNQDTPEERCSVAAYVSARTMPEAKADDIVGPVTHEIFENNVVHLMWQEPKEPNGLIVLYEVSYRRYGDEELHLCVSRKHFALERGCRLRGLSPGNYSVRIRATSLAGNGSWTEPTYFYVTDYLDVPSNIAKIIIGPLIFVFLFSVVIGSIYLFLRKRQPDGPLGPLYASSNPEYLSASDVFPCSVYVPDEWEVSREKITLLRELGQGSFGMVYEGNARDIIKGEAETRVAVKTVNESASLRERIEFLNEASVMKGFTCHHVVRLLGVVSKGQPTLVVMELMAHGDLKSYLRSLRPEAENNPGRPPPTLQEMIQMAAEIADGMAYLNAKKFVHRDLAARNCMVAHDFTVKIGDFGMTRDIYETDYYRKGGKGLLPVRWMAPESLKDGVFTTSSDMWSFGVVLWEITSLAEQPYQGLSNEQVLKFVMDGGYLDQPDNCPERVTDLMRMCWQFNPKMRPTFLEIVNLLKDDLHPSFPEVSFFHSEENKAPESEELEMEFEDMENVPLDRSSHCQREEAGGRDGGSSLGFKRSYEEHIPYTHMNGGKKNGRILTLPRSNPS
Chain of IR (P06213 28-758 limits assumed): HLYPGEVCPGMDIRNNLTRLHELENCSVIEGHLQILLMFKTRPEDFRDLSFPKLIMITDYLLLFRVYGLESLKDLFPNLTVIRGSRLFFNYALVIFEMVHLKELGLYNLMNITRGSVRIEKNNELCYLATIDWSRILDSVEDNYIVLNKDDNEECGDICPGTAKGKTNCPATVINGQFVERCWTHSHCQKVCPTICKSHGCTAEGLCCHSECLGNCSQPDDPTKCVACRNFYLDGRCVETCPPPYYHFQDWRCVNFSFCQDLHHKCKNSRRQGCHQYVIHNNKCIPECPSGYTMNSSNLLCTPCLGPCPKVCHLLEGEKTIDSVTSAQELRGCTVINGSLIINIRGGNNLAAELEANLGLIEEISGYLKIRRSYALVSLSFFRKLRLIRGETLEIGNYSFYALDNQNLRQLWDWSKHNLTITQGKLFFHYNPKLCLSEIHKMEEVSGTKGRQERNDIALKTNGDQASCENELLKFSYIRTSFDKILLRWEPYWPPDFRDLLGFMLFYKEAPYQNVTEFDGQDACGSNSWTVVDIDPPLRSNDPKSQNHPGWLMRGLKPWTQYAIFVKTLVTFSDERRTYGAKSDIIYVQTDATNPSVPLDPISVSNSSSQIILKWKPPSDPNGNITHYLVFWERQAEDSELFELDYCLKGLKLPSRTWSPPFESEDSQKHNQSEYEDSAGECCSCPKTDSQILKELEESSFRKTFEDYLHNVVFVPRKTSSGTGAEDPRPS
Procedure: A cell-based screening assay was developed with Chinese hamster ovary cells stably transfected with IR (CHO-IR) by using an ELISA to determine the IR tyrosine phosphorylation. […] Other 1,4-Napthoquinones that are structurally related to 4524-E7 were evaluated.
CHO-IR cells were seeded in a 96-well plate at 15,000 cells per well in […] of 0.1% FBS medium with 0.1% FBS. […] Cells were lysed, and phosphorylated receptors were captured with pY20 immobilized on ELISA plates. Bound receptors were washed, then detected using an anti-IR beta antibody, followed by an horseradish peroxidase-conjugated secondary antibody and colorimetric detection with 3,3′,5,5′-tetramethylbenzidine.
A cell-based ELISA assay was developed with an IR stably transfected Chinese Hamster Ovary (CHO-IR) cell line. […] The cell lysates were subjected to the sandwich ELISA using immobilized anti-phosphotyrosine antibody and anti-IR antibody.

ob/ob mice = test: Plasma insulin in ob/ob mice; format: in vivo, mouse; details: single oral doses
Procedure: After a 12 h fasting, ob/ob mice were bled from the tail vein for a baseline (time −60 minutes) measurement. Then animals were orally administered 5 mg/kg compound in 0.5% methylcellulose. One hour after the drug administration, glucose (2 g/kg) was administrated intraperitoneally. Blood glucose levels were measured 0, 30, 60, 90, 120, and 180 min after administration of glucose. The blood was collected in tubes, kept at 4° C. overnight, and plasma was prepared by centrifugation (2,000 g, 20 min). Plasma insulin was measured by enzyme-linked immunosorbent assay with a rat insulin kit (Crystal Chem. Inc., USA). Insulin was quantified using the insulin standard curve.

O=C1c2ccccc2C(=O)C2SC(Nc3ccc(Cl)cc3)=NC12 (stereo not shown) [4524-E7, 2-((4-chlorophenyl)amino)naphtho[2,3-d]thiazole-4,9(3aH,9aH)-dione]
tyrosine phosphorylation of chimaeric receptor (IR-EGFR): not phosphorylated | tyrosine phosphorylation of chimaeric receptor (IR-IGFR): not phosphorylated | tyrosine phosphorylation of chimaeric receptor (IGFR-IR hybrid): selective tyrosine phosphorylation | TrkB activation (TrkB): not any other RTKs | IR phosphorylation (IR; 5 μM, 15 min, CHO-IR cells, ELISA): about 250 % of basal level | concentration at which IR activation peaked (IR; 15 min, dose-response): 10 µM | concentration at which IR activation started (IR; 15 min, dose-response): 2.5 µM | time at which IR activation is triggered (IR; 4524-E7 5 μM or insulin 50 nM): 5 min | time at which IR activation peaked (IR; 4524-E7 5 μM or insulin 50 nM): 30 min

CC(=O)Oc1ccc(OC(C)=O)c2c1C(=O)C(Cl)=C(Cl)C2=O [DDN, 5,8-diacetyloxy-2,3-dichloro-1,4-naphthoquinone]
plasma insulin levels (ob/ob mice): no significant effect on plasma insulin levels
